Laboratory results reported in paper PMC4192606, “Agrobacterium Uses a Unique Ligand-Binding Mode for Trapping Opines and Acquiring A Competitive Advantage in the Niche Construction on Plant Host” (PLoS Pathogens, 2014).
Where “and” joins values, the source holds several entries; their conditions need not be identical. Equal values may be shown once.

Assays:
NocT [1] = target: T1, NocT (Agrobacterium fabrum, UniProt P35120); test: KD measurement by isothermal titration calorimetry (ITC), wild-type NocT; type: binding, Agrobacterium tumefaciens C58
T1 construct: The X-ray structures of the mature free-liganded NocT; made in house; host or cells: E. coli Rosetta pLysS
Experimental: ITC experiments were performed with an ITC200 isothermal titration calorimeter from MicroCal Llc (Northampton, MA). The experiments were carried out at 20°C. Protein concentration in the microcalorimeter cell (0.2 ml) varied from 100 to 150 µM. Nineteen injections of 2 µl of the ligand solution concentration from 1.5 to 1.6 mM were performed at intervals of 180 s while stirring at 1000 rpm. The experimental data were fitted to theoretical titration curves with software supplied by MicroCal (ORIGIN). This software uses the relationship between the heat generated by each injection and ΔH (enthalpy change in Kcal.mol^−1), Ka (the association binding constant in M^−1), n (the number of binding sites), total protein concentration and free and total ligand concentrations.

NocT [2] = target: T1, NocT; test: KD measurement by intrinsic protein fluorescence titration, wild-type NocT; type: binding, Agrobacterium tumefaciens C58; conditions: 25°C, 25 mM Tris-HCl pH 8.0, 150 mM NaCl, 5 µM protein, triplicates; for Kd: read-out: KD (fluorescence titration), NocT wt
Experimental: (§1) Ligand-NocT interaction was monitored by autofluorescence by exciting the protein at a wavelength of 295 nm and monitoring the quenching of fluorescence emission of tryptophan residues at 340 nm. All experiments were performed at 25°C in 25 mM Tris-HCl pH 8.0 and 150 mM NaCl with a fixed amount of proteins (5 µM) and increasing concentrations of ligand using a SpectraMax M5 microplate reader (Molecular Devices). […] Fluorescence measurements were done in triplicates. The data were analysed using Origin 7 software and fitted to the equation f = ΔFluorescencemax * abs(x)/(KD+abs(x)).

[3] = tested on: A. tumefaciens C58 nocT mutant; test: Growth assay on opine as sole carbon and nitrogen source, nocT mutant; type: cell-based, Agrobacterium tumefaciens C58; conditions: opine as sole source of carbon and nitrogen at 3 mM, AB medium, OD600 after 24 hours
Excerpt: (§2) The A. tumefaciens C58 derivatives carrying pTi-accR::Gm and pTi::Gm (used as C58-control in plant assay) in which the genes accR (atu6138) and atu6147 were disrupted by inserting a gentamicin resistance cassette were already constructed. The A. tumefaciens C58 derivatives harbouring the Ti-plasmid pTi-nos::Km, pTi-ocd::Gm, pTi-nocT::Gm were obtained by insertion of a gentamicin (Gm) or kanamycin (Km) resistance cassette into the genes nos ( = atu6015), ocd ( = atu6016), and nocT ( = atu6027) as described previously.
(§3) A. tumefaciens was cultivated at 30°C in Agrobacterium broth (AB) minimal medium supplemented with ammonium chloride (1 g/L) and mannitol (2 g/L) except when an alternative source of carbon and nitrogen is indicated, or in Luria-Bertani modified medium (LBm; NaCl 5 g/L). In growth assay nopaline and pyronopaline were added as a sole carbon and nitrogen source at 3 mM (ca 1 g/L). The antibiotics gentamycin and kanamycin were added at 25 µg/mL and 50 µg/mL, respectively.

[4] = tested on: A. tumefaciens C58 ocd mutant; test: Growth assay on opine as sole carbon and nitrogen source, ocd mutant; type: cell-based, Agrobacterium tumefaciens C58; conditions: opine as sole source of carbon and nitrogen at 3 mM, AB medium, OD600 after 24 hours
Excerpt: as §2, §3

NocT-M117N = target: T2, NocT-M117N (Agrobacterium fabrum, UniProt P35120, M117N); test: KD measurement by fluorescence titration, NocT-M117N mutant; type: binding, Agrobacterium tumefaciens C58
T2 construct: The X-ray structures of the mature free-liganded NocT; made in house; host or cells: E. coli Rosetta pLysS
Excerpt: (§4) Using 5′-[…] and 5′-[…] primers, nocT gene of A. tumefaciens C58 was amplified and then cloned into pET-9aSN1 expression vector (a gift from S. Chéruel, IBBMC, University Paris Sud, Orsay, France). The pET-9aSN1-nocT was used as template to generate directed mutations with QuikChange II XL directed mutagenesis kit (Stratagene). For mutations Met117 to Ser (M117S) and Asn (M117N), the synthetic forward primers 5′–[…] and 5′-[…] and their reverse complemented primers were designed. The nucleotide sequence of all alleles was confirmed by DNA-sequence analysis (GATC, France).
as §1

NocT-M117S = target: T3, NocT-M117S (Agrobacterium fabrum, UniProt P35120, M117S); test: KD measurement by fluorescence titration, NocT-M117S mutant; type: binding, Agrobacterium tumefaciens C58
T3 construct: The X-ray structures of the mature free-liganded NocT; made in house; host or cells: E. coli Rosetta pLysS
Excerpt: as §4, §1

[5] = 20°C, protein 100 to 150 µM, triplicates

T1 sequence (P35120 26-283): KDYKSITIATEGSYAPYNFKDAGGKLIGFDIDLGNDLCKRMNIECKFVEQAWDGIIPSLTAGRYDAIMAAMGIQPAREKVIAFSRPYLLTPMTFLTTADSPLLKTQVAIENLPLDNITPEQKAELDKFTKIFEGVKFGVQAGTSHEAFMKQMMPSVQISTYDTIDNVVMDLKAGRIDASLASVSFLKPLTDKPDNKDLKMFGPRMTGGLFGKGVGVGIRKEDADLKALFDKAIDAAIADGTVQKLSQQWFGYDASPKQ
T2 sequence (P35120 26-283 M117N): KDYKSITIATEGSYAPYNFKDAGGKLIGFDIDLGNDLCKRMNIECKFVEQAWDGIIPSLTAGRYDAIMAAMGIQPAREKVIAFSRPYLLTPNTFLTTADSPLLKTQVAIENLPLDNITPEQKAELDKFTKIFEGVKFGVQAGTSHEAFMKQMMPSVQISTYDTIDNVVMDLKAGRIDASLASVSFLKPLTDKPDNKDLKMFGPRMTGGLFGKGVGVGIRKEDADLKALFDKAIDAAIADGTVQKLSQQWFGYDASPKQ
T3 sequence (P35120 26-283 M117S): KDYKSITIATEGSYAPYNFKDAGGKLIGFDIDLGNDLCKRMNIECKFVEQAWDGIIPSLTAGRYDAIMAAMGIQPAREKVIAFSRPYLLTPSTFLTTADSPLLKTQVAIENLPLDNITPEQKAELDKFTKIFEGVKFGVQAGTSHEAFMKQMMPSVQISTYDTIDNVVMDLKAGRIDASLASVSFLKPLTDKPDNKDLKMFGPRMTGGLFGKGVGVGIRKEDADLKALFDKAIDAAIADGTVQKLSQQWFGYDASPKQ

Row | Structure (SMILES) | KD (ITC), NocT wt (NocT [1]; [5]) | Kd (NocT [2]) | growth of nocT mutant [3] | growth of ocd mutant [4] | other results
1 | N=C(N)NCCC[C@H](N)C(=O)O [arginine, reference compound] | no interaction | – | – | – | KD (fluorescence titration), NocT wt (NocT [2]): no interaction
2 | N[C@@H](Cc1c[nH]cn1)C(=O)O [histidine, reference compound] | no interaction | – | – | – | –
3 | N=C(N)NCCCC(NC(CCC(=O)O)C(=O)O)C(=O)O (centres unmarked) [nopaline] | – | 3700 nM | could not grow | strongly impaired | –
4 | NCCC[C@H](N)C(=O)O [ornithine, reference compound] | no interaction | – | – | – | –
5 | N=C(N)NCCCC(C(=O)O)N1C(=O)CCC1C(=O)O (centres unmarked) [pyronopaline] | – | 570 nM and 600 nM | could not grow | strongly impaired | TΔS of binding (ITC) (NocT [1]; 20°C): 12.6 kcal/mol; Kd (NocT [1]; 20°C, protein 100 to 150 µM, triplicates, read-out: KD (ITC), NocT wt): 580 ± 50 nM; enthalpy of binding (ITC) (NocT [1]; positive enthalpy): 2.1 kcal/mol; Kd (NocT-M117N): 39900 ± 7000 nM; KD fold higher than that of the WT protein, NocT-M117N (NocT-M117N; mutant vs WT NocT): 76 fold; Kd (NocT-M117S): 37800 ± 9000 nM; KD fold higher than that of the WT protein, NocT-M117S (NocT-M117S; mutant vs WT NocT): 76 fold
